We go through 3 compounds from patent US11884685B2, “Rhenium complexes and methods of use for treating cancer” (CORNELL UNIVERSITY, priority 2018, dated 2024).

One assay concerns HEK293 (kidney) cells. As to the kind of experiment: MTT cell viability (cytotoxicity). Particulars: 48 hours incubation, non-cancer cell line. Format: cell-based. How it is done: (§1) All compounds were dissolved in PBS at pH 7.4 to prepare 1-2 mM stock solutions. For cell viability studies, all cells were grown to 80-90% confluence, detached with trypsin/EDTA, seeded in 96-well plates at 4000-8000 cells/well in 100 μL of growth media, and incubated for 24 hours. The medium was removed and replaced with fresh medium (200 μL) containing varying dilutions of either the rhenium compounds, cisplatin, or media. The cells were then incubated for 48 hours. The medium was removed from the wells, and 3-(4,5-dimethylthiazol-2-yl)-[…] (MTT) in DMEM, RPMI, or MEM (200 μL, 1 mg/mL) was added. The additional 48 hours incubation was performed to ensure that the cells were in the logarithmic growth phase and that the cells had adequate time to regrow after exposure to the complexes. After 4 hours, the MTT/DMEM, RPMI, or MEM solution was removed, and the formazan crystals were dissolved in 200 μL of an 8:1 mixture of DMSO and pH 10 glycine buffer. The absorbance at 570 nm in each well was measured using a BioTek Synergy HT plate reader. Cell viability was determined by normalizing the absorbance of the treated wells to untreated wells. The % viability data shown is an average of three independent experiments with six replicates per concentration

Assay [1] has as its system HeLa (cervical cancer) cells. As to the kind of experiment: MTT cell viability (cytotoxicity). It counts as cell-based. The conditions noted are these: 48 hours incubation. The method, then: as §1
Assay [2] has as its system A2780CP70 (cisplatin-resistant ovarian cancer) cells. Description: MTT cell viability (cytotoxicity). Format: cell-based. The conditions noted are these: 48 hours incubation, read-out: IC50 A2780 CP70 (cisplatin-resistant ovarian cancer). The method, then:
as §1

Assay [3] concerns A2780 (ovarian cancer) cells. Description: MTT cell viability (cytotoxicity). It counts as cell-based. Particulars: 48 hours incubation. How it is done:
as §1

For another assay, the system named is A549 (lung cancer) cells. As to the kind of experiment: MTT cell viability (cytotoxicity). Format: cell-based. The conditions noted are these: 48 hours incubation. How it is done: as §1
Assay [4] deals with HeLa cells. Particulars: 5 μM, within 30 minutes, vs untreated cells. The text has this:
Phosphorylation of eIF2α often occurs due to the accumulation of misfolded proteins.

The subject of assay [5] is proteasome inhibition, HSP90 inhibition, reactive oxygen species generation.
For assay [6], the system named is cytochrome c release from the mitochondria. Particulars: flow cytometry. For orientation: In flow cytometry, cells or beads pass a laser one at a time.
Assay [7] relates to National Cancer Institute (NCI)-60 cell line panel.
In another assay the test system is LC3 in A2780 cells. The conditions noted are these: after 24 hours.
Assay [8] deals with eIF2α phosphorylation, ATF4, CHOP in A2780 cells. An excerpt:
(§2) Salubrinal operates by inhibiting dephosphorylation of the master regulatory protein eukaryotic initiation factor 2α (eIF2α), an integral component of the UPR. […] Next, the downstream effects of eIF2α phosphorylation were investigated. The most immediate and pronounced effect of eIF2α phosphorylation is the inhibition of translation (S. R. Kimball, Int. J. Biochem. Cell Biol. 1999, 31, 25-29).
(§3) Hyperphosphorylation of eIF2α can lead to apoptosis via upregulation of the stress-related transcription factors ATF4 and CHOP (H. Matsumoto et al., Biol. Open 2013, 2, 1084-1090). […] Phosphorylation of eIF2α also results in cell cycle arrest in the G1 phase (J. W. Brewer et al., Proc. Natl. Acad. Sci. U.S.A. 2000, 97, 12625-12630).

Another assay deals with cells. Particulars: vs untreated cells.
Source text: as §3

Assay [9] relates to HeLa cells.
For assay [10], the system named is mutant MEF cell line incapable of eIF2α phosphorylation. The conditions noted are these: mutant cells after treatment.
Source text: as §2

Another assay relates to A2780 cells.
Source text: as §2

In the case of `N.N.[Cl][Pt][Cl]` [Cisplatin, cisplatin], the IC50 worked out at 1700 ± 200 nM in the assay on HEK293 (kidney) cells; 6.6 ± 0.7 µM in assay [1]; 12 ± 3 µM in [2]; 1300 ± 100 nM in assay [3]; 5.6 ± 0.5 µM with A549 (lung cancer) cells.

For the compound `Cc1ccc2ccc3ccc(C)nc3c2n1.[C-]#[O+].[C-]#[O+].[C-]#[O+].[Re+]` [Neo-Re, [Re(CO)3(dmphen)(OH2)]^+], the IC50 with HEK293 (kidney) cells is 9000 ± 300 nM; in [1] it was 4.4 ± 1.3 µM; in assay [2], 6 ± 0.2 µM; in assay [3] it was 5700 ± 600 nM; in the assay on A549 (lung cancer) cells, 7.7 ± 2.4 µM.

Turning to [Re(CO)3(dmphen)(p-tol-ICN)]Cl [TRIP], in the assay on HeLa cells [4], the “fluorescence intensity of ThT (protein aggregates)” value is listed as “increased significantly”. Further, in assay [5], the “protein misfolding via proteasome inhibition, HSP90 inhibition, or ROS generation” value is on record as “no evidence has been found”. Besides, the “cytochrome c release from mitochondria” value in assay [6] is recorded as “Cytochrome c release occurs on the same time scale as apoptosis induction”. Also, the “activity across NCI-60 cell line panel” value in assay [7] is “most potent in melanoma and breast cancer cells lines and least effective in lung and renal cancer cell lines”. In addition, the “LC3II expression relative to LC3I” value in the assay with LC3 in A2780 cells is “large increase in LC3II expression relative to LC3I”. The “ATF4 and CHOP expression” value in assay [8] (Western blot) was “both ATF4 and CHOP were upregulated”. In [8] (as little as 2 hours after exposure), the eIF2α phosphorylation result is “induction of eIF2α phosphorylation”. Further, the “increase in population of cells in the G1 phase” value in the assay with cells came to 18%. Further, in the assay with HeLa cells [9] (HeLa cells, 5 μM, after only 30 minutes), the mitochondrial morphology entry was “significantly rounded and punctate”. Also, in the assay with HeLa cells [9] (ratiometric sensor JC-1), the “mitochondrial polarization (JC-1)” value is listed as “mitochondria remained functional”. For the same compound, the IC50 in the assay with HEK293 (kidney) cells came to 1900 ± 200 nM; in assay [1] it was 1.4 ± 0.2 µM; in assay [2], 1.9 ± 1 µM; in [3], 1700 ± 700 nM; in the assay on A549 (lung cancer) cells, 1.4 ± 0.6 µM. In addition, in assay [10], the “translation levels in eIF2α mutant MEF cells” value is “no changes in translation levels”. Moreover, the “puromycin incorporation (translation)” value in the assay with A2780 cells (5 μM, as early as 2 hour post incubation, vs untreated controls) is listed as “substantially less puromycin”. Moreover, the “factor of increase in activity in presence of salubrinal” value with A2780 cells (25 μM salubrinal) was found to be 4.

Usually IC50 stands for the midpoint of a concentration-inhibition curve.
